Assay results reported in patent publication US10519169B2, “3-(1H-pyrrolo[2,3-C]pyridin-2-yl)-1 H-pyrazolo[4,3-B]pyridines and therapeutic uses thereof” (Samumed, LLC, priority 2015, dated 2019).

Assays:
Assay type in all cases: cell-based
[1] = system: SW480 colon cancer cells; experiment: Cell viability assay (CellTiter-Blue), SW480 cells; conditions: Homo sapiens; for EC50: 96 h, four days, CellTiter-Blue; for inhibition at 10 µM: given for EC50 >10 μM, read-out: percent inhibition at 10 μM
Description: Representative compounds were screened using the following assay procedure to assess the effect on cell viability as described below.
Each compound was dissolved in DMSO as a 10 mM stock and used to prepare compound source plates. Serial dilution (1:3, 8-point dose-response curves from […]) and compound transfer was performed using the ECHO 550 (Labcyte, Sunnyvale, Calif.) into 96-well clear bottom, black-walled plates (Corning-Costar).
Approximately 2×10^3 SW480 colon cancer cells were seeded into each well and allowed to incubate in the presence or absence of compound for four days at 37° C./5% CO2. Eight replicates of DMSO-treated cells served as controls and cells treated with compound were performed in duplicate.
After incubation, 20 μL of CellTiter-Blue (Promega) was added to each well allowed to incubate for approximately 3 hours. This reagent was a buffered solution which contains resazurin, metabolically active cells were able to reduce rezarurin (blue) into resorufin (pink) which was highly fluorescent. This measured fluorescence was used as a readout for cell viability.
After incubation, the plates were read at Ex 560 nm Em 590 nm (Cytation 3, BioTek). Dose-response curves were generated and EC50 concentration values were calculated using non-linear regression curve fit in the GraphPad Prism (San Diego, Calif.) or Dotmatics' Studies Software (Bishops Stortford, UK). For EC50 of >10 μM, the percent inhibition at 10 μM is provided.

[2] = system: IL-6; experiment: IL-6 inhibition in LPS-stimulated THP-1 cells (HTRF); conditions: Homo sapiens; for EC50: LPS 500 ng/mL, 22 hours, IL6 HTRF; for inhibition at 10 µM: given for EC50 >10 μM, LPS, IL6, at 10 M [sic], read-out: percent inhibition at 10 M
Description: Human monocyte cell line (THP-1 cells; Catalog # TIB-202, ATCC, Manassas, Va.) were cultured in Roswell Park Memorial Institute (RPMI) 1640 Medium (Catalog #21870-100, Buffalo, N.Y.) with 1% L-glutamine, 1% HEPES, 1% Sodium Pyruvate, 2% Sodium Bicarbonate supplemented with 100 units/mL penicillin, 50 μg/mL streptomycin, 2-mercaptoethanol (0.05 mM) [basal medium] and 10% fetal bovine serum (Catalog #16140089, Life Technologies, Carlsbad, Calif.) at 37° C. and 5% CO2.
THP-1 cells were cultured in basal media with 1% FBS for 24 hours before the start of the assay. Each compound was dissolved in DMSO as a 10 mM stock and used to prepare compound source plates. Serial dilution (1:3, 10-point dose-response curves starting from 10 μM) and compound transfer was performed using the ECHO 550 (Labcyte, Sunnyvale, Calif.) into 384-well white low volume assay plates (Greiner Bio-One) with appropriate DMSO backfill for a final DMSO concentration of 0.1%. THP-1 cells were plated at 5000 cells/well in the 384-well plates and incubated at 37° C. for 2 h. 500 ng/mL of LPS was added after 2 hours and cells were incubated for another 22 hours at 37° C. Plates were spun in a centrifuge for 1 minute at […] and a mixture of anti-IL6 XL665, and anti-IL6 Cryptate diluted in reconstitution buffer (Cisbio Inc.) was added to each well. Following incubation for 3 hrs at room temperature, Homogeneous Time-Resolved Fluorescence (HTRF) was measured using the Envision (Perkin Elmer) at 665 nm and […]. The ratio of fluorescence at 665 nm to 620 nm was used as a readout for IL6 quantification. All samples were processed in duplicate. Readings were normalized to DMSO treated cells and normalized activities were utilized for EC50 calculations using the dose-response log (inhibitor) vs. response-variable slope (four parameters) nonlinear regression feature available in GraphPad Prism 5.0 (or Dotmatics). For EC50 of >10 μM, the percent inhibition at […] is provided.

[3] = system: primary human mesenchymal stem cells (hMSCs); experiment: Chondrogenesis induction in hMSCs (chondrogenic nodules); conditions: 144 h, 6 days; for Emax: nodules, relative to TGF-β3 positive control (10 ng/mL), read-out: Max. Activity as % TGF-β3 activity; for EC50: concentration required to induce 50% levels of chondrogenesis vs TGF-β3, read-out: Conc (nM) of 50% TGF-β3 activity
Description: Representative compounds were screened using primary human mesenchymal stem cells (hMSCs) to determine their ability to induce chondrogenesis (process by which cartilage is developed).
Primary human mesenchymal stem cells (hMSCs) were purchased from Lonza (Walkersville, Md.) and expanded in Mesenchymal Stem Cell Growth Media (Lonza). Cells between passage 3 and 6 were used for the experiments.
Each compound was dissolved in DMSO as a 10 mM stock and used to prepare compound source plates. Serial dilution (1:3, 6-point dose-response curves from 2700 nM to 10 nM) and compound transfer was performed using the ECHO 550 (Labcyte, Sunnyvale, Calif.) into 96-well clear bottom assay plates (Greiner Bio-One) with appropriate DMSO backfill for a final DMSO concentration of 0.03%. hMSCs were plated at 20,000 cells/well in 250 μL/well Incomplete Chondrogenic Induction Medium (Lonza; DMEM, dexamethasone, ascorbate, insulin-transferrin-selenium [ITS supplement], gentamycin-amphotericin [GA-1000], sodium pyruvate, proline and L-glutamine). TGF-03 (10 ng/mL) was used as a positive control for differentiation while negative control wells were treated with 75 nL DMSO for normalization and calculating EC50 values. Cells were incubated at 37° C. and 5% CO2 for 6 days. To image chondrogenic nodules, the cells were fixed using 4% formaldehyde (Electron Microscopy Sciences), and stained with 2 μg/mL Rhodamine B (Sigma-Aldrich) and 20 μM Nile Red (Sigma-Aldrich) [Johnson K., et. al, A Stem Cell-Based Approach to Cartilage Repair, Science, (2012), 336(6082), 717-721]. The nodules imaged (4 images per well at 4× magnification) by excitation at 531 nm and emission at 625 nm and quantified using the CellInsight CX5 (Thermo Scientific). Number of nodules in each well was normalized to the average of 3 DMSO treated wells on the same plate using Excel (Microsoft Inc.). The normalized averages (fold change over DMSO) of 3 replicate wells for each compound concentration were calculated. Due to solubility limitations of some of the compounds, curve fitting was incomplete leading to inaccurate EC50 determinations.
Using TGF-β3 as a positive control, the concentration of representative compounds required to induce 50% levels of chondrogenesis is reported. In addition, the maximum activity of each compound and the respective dose that each compound reached maximum chondrogenesis activity is reported.

SMILES | EC50 [1] [nM] | EC50 [2] [nM] | EC50 [3] [nM] | inhibition at 10 µM [2] [%] | Emax [3] [%] | inhibition at 10 µM [1] [%]
Fc1ccc(-c2cncc3[nH]c(-c4n[nH]c5ccc(-c6cncc(CN7CCC(F)(F)C7)c6)nc45)cc23)cc1 [Compound 54, 5-(5-((3,3-Difluoropyrrolidin-1-yl)methyl)pyridin-3-yl)-3-(4-(4-fluorophenyl)-1H-pyrrolo[2,3-c]pyridin-2-yl)-1H-pyrazolo[4,3-b]pyridine] | 827 | 177 | 900 |  | 194 | 
CS(=O)(=O)NCc1cc(F)cc(-c2cncc3[nH]c(-c4n[nH]c5ccc(-c6cncnc6)nc45)cc23)c1 [Compound 503, N-(3-Fluoro-5-(2-(5-(pyrimidin-5-yl)-1H-pyrazolo[4,3-b]pyridin-3-yl)-1H-pyrrolo[2,3-c]pyridin-4-yl)benzyl)methane sulfonamide] | > 10000 | 649 | 10 |  | 106 | 28.3
CS(=O)(=O)NCc1cc(F)cc(-c2cncc3[nH]c(-c4n[nH]c5ccc(-c6cncc(CN7CCCCC7)c6)nc45)cc23)c1 [Compound 491, N-(3-Fluoro-5-(2-(5-(5-(piperidin-1-ylmethyl)pyridin-3-yl)-1H-pyrazolo[4,3-b]pyridin-3-yl)-1H-pyrrolo[2,3-c]pyridin-4-yl)benzyl)methanesulfonamide] | 1960 | 213 | 10 |  | 83 | 
Fc1cccc(-c2cncc3[nH]c(-c4n[nH]c5ccc(C6CCNCC6)nc45)cc23)c1 [Compound 505, 3-(4-(3-Fluorophenyl)-1H-pyrrolo[2,3-c]pyridin-2-yl)-5-(piperidin-4-yl)-1H-pyrazolo[4,3-b]pyridine] | > 10000 | 1110 | 2700 |  | 103 | 26
CS(=O)(=O)NCc1cc(F)cc(-c2cncc3[nH]c(-c4n[nH]c5ccc(-c6ccccn6)nc45)cc23)c1 [Compound 504, N-(3-Fluoro-5-(2-(5-(pyridin-2-yl)-1H-pyrazolo[4,3-b]pyridin-3-yl)-1H-pyrrolo[2,3-c]pyridin-4-yl)benzyl)methanesulfonamide] | > 10000 | 31 | 300 |  | 99 | 47.6
O=C(Cc1ccccc1)Nc1cncc(-c2ccc3[nH]nc(-c4cc5c(-c6ccoc6)cncc5[nH]4)c3n2)c1 [Compound 318, N-(5-(3-(4-(Furan-3-yl)-1H-pyrrolo[2,3-c]pyridin-2-yl)-1H-pyrazolo[4,3-b]pyridin-5-yl)pyridin-3-yl)-2-phenylacetamide] | > 10000 | > 10000 |  | 30.9 |  | 23.8
c1ccc(-c2ccc3[nH]nc(-c4cc5ccncc5[nH]4)c3n2)nc1 [Compound 280, 5-(Pyridin-2-yl)-3-(1H-pyrrolo[2,3-c]pyridin-2-yl)-1H-pyrazolo[4,3-b]pyridine] | > 10000 | > 10000 |  | 47.2 |  | 3.3
c1cc(-c2cncc3[nH]c(-c4n[nH]c5ccc(-c6cncc(OCCN7CCCC7)c6)nc45)cc23)co1 [Compound 690, 3-(4-(Furan-3-yl)-1H-pyrrolo[2,3-c]pyridin-2-yl)-5-(5-(2-(pyrrolidin-1-yl)ethoxy)pyridin-3-yl)-1H-pyrazolo[4,3-b]pyridine] | > 10000 | > 10000 |  | 9.7 |  | 0

Second part, led by results:

EC50 [1] [nM] | EC50 [2] [nM] | EC50 [3] [nM] | SMILES | inhibition at 10 µM [2] [%] | Emax [3] [%] | inhibition at 10 µM [1] [%]
2310 | > 10000 |  | O=C(Nc1cncc(-c2ccc3[nH]nc(-c4cc5c(-c6ccc(F)cc6)cncc5[nH]4)c3n2)c1)c1ccccc1 [Compound 39, N-(5-(3-(4-(4-Fluorophenyl)-1H-pyrrolo[2,3-c]pyridin-2-yl)-1H-pyrazolo [4,3-b]pyridin-5-yl)pyridin-3-yl)benzamide] | 33.1 |  | 
2880 | 160 |  | Fc1ccccc1-c1cncc2[nH]c(-c3n[nH]c4ccc(-c5cn[nH]c5)nc34)cc12 [Compound 539, 3-(4-(2-Fluorophenyl)-1H-pyrrolo[2,3-c]pyridin-2-yl)-5-(1H-pyrazol-4-yl)-1H-pyrazolo[4,3-b]pyridine] |  | 40 | 
475 | 266 | 30 | Fc1cccc(-c2cncc3[nH]c(-c4n[nH]c5ccc(-c6cccnc6)nc45)cc23)c1 [Compound 4, 3-(4-(3-Fluorophenyl)-1H-pyrrolo[2,3-c]pyridin-2-yl)-5-(pyridin-3-yl)-1H-pyrazolo[4,3-b]pyridine] |  | 92 | 
> 10000 | 1030 | 30 | Nc1cncc(-c2ccc3[nH]nc(-c4cc5c(-c6ccncc6)cncc5[nH]4)c3n2)c1 [Compound 115, 5-(3-(4-(Pyridin-4-yl)-1H-pyrrolo[2,3-c]pyridin-2-yl)-1H-pyrazolo[4,3-b]pyridin-5-yl)pyridin-3-amine] |  | 53 | 7.6
4040 | 3710 | 10 | Cn1cc(-c2ccc3[nH]nc(-c4cc5c(-c6cccnc6)cncc5[nH]4)c3n2)cn1 [Compound 556, 5-(1-Methyl-1H-pyrazol-4-yl)-3-(4-(pyridin-3-yl)-1H-pyrrolo[2,3-c]pyridin-2-yl)-1H-pyrazolo[4,3-b]pyridine] |  | 52 | 
> 10000 | > 10000 |  | Cc1ncc(-c2ccc3[nH]nc(-c4cc5c(-c6ccncc6)cncc5[nH]4)c3n2)n1C [Compound 573, 5-(1,2-Dimethyl-1H-imidazol-5-yl)-3-(4-(pyridin-4-yl)-1H-pyrrolo[2,3-c]pyridin-2-yl)-1H-pyrazolo[4,3-b]pyridine] | 0 |  | 5.3
